Test results published in patent US12187773B2, “Modified GIP peptide analogues” (Antag Therapeutics ApS, priority 2018, dated 2025).
*1 amine or outer side, *2 acyl side, *3 side chain or, on linkers, in order; H or OH if unused. Where a SMILES comes first, the peptide text is derived from it. Side-chain parts run from the residue outwards. [ ]: non-standard residue; d: D form. The star is where a group is joined. C18 diacid = O=C(O)CCCCCCCCCCCCCCCCC(=O)*; C16 diacid = O=C(O)CCCCCCCCCCCCCCC(=O)*; γGlu = O=C(O)[C@H](CCC(=O)[*:2])N[*:1]; pGlu = O=C1CC[C@@H](C(=O)O)N1; AEEA = NCCOCCOCC(=O)O

Experiments:
Type in all cases: cell-based
human GIP receptor [1] = molecular target: T1, human GIP receptor (Homo sapiens, UniProt P48546); assay: cAMP agonism (CisBio cAMP Dynamic 2 HTRF assay); settings: HEK293, read-out: cAMP agonism, % Efficacy, Table 1C, HEK-293 cells
T1 sequence (P48546 22-466): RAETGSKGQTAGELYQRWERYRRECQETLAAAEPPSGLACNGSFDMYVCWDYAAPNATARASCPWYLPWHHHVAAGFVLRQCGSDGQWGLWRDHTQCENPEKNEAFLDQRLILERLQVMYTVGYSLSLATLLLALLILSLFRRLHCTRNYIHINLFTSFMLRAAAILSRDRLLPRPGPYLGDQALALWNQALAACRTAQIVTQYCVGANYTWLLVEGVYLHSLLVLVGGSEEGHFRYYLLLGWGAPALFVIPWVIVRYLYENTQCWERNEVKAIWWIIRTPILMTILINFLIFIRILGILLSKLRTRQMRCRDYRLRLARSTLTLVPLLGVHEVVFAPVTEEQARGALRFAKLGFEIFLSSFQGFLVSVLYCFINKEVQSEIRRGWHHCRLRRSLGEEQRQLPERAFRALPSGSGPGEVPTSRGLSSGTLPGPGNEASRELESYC
Experimental: To test for agonistic properties at the GIP receptor, compounds were diluted and added to cells as described above and incubated for 30 min at 37° C. The resulting increase in intracellular cAMP was determined using the CisBio cAMP Dynamic 2 HTRF Assay Kit as described above.

human GIP receptor [2] = molecular target: T1, human GIP receptor; assay: cAMP antagonism (CisBio cAMP Dynamic 2 HTRF assay); design: pCMV-Script vector; settings: Table 1C, CisBio, HEK-293 cells; for IC50: cAMP antagonism, nM (IC50), agonist GIP1-42 at EC50
How it was run: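 Four-parameter fits of cAMP dose-response gave pIC50. cAMP fall was quantified by HTRF competition, ratio 665/620 nm after 60 min at room temperature, against a cAMP standard curve.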

human GIP receptor [3] = molecular target: T1, human GIP receptor; assay: cAMP accumulation, antagonism (DiscoveRx HitHunter cAMP XS assay); design: host or cells: COS-7 (transient, calcium phosphate; pCMV-Script vector); settings: Table 1B, DiscoveRx; for cAMP antagonism, % inhib: COS-7 cells, % inhibition of Emax; for IC50: cAMP antagonism, nM (IC50), transiently transfected COS-7 cells
Experimental: Transient transfected COS-7 cells expressing the human GIP receptor were seeded in white 96-well plates with a density of 3.5*10^4/well. The day after, the cells were washed twice with Hepes buffered saline (HBS) buffer and incubated with HBS and 1 mM 3-isobutyl-1-methylxanthine (IBMX) for 30 min at 37° C. To test for agonistic properties, ligands were added and incubated for 30 min at 37° C. In order to test for antagonistic properties, the cells were preincubated with the antagonists for 10 min prior to the addition of the agonist and subsequent incubated for 20 additional min. The HitHunter™ cAMP XS assay (DiscoveRx) was carried out according to the manufacturer's instructions.
In order to develop a GIP receptor antagonist with improved antagonistic properties, individual amino acid substitutions were conducted on GIP(3-30)NH2 and in particular at positions: 16, 18, 30 or 3, 16, 18, 30. The obtained peptides were lipidated at position 18 directly or via a linker. Both the agonistic and antagonistic profiles of the compounds were tested in cAMP accumulation experiments done in transiently transfected COS-7 cells expressing the human GIP receptor. To investigate if these mutated analogues still retained their antagonistic properties, their ability to inhibit a GIP-mediated cAMP response corresponding to 50-80% of maximum activation was examined.

human GIP receptor [4] = molecular target: T1, human GIP receptor; assay: cAMP accumulation, agonism (DiscoveRx HitHunter cAMP XS assay); design: host or cells: COS-7 (transient, calcium phosphate; pCMV-Script vector); settings: Table 1B; DiscoveRx; COS-7 cells
How it was run: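 cAMP accumulation measured by HitHunter cAMP XS in COS-7 cells transiently expressing human GIP receptor, after 30 min in HBS with 1 mM IBMX at 37 °C. Antagonists preincubated 10 min before GIP giving 50-80% of maximum, then 20 min more; agonist mode used 30 min ligand exposure.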

CC[C@H](C)[C@H](NC(=O)[C@H](CO)NC(=O)[C@H](Cc1ccc(O)cc1)NC(=O)[C@H](CC(=O)O)NC(=O)[C@H](CO)NC(=O)[C@@H](NC(=O)[C@H](Cc1ccccc1)NC(=O)[C@@H](NC(=O)CNC(=O)[C@@H](N)CCC(=O)O)[C@@H](C)O)[C@@H](C)CC)C(=O)N[C@@H](C)C(=O)N[C@@H](CCSC)C(=O)N[C@@H](CC(=O)O)C(=O)N[C@@H](CCCNC(=N)N)C(=O)N[C@H](C(=O)N[C@@H](CCCCNC(=O)COCCOCCNC(=O)COCCOCCNC(=O)COCCOCCNC(=O)CC[C@H](NC(=O)CCCCCCCCCCCCCCC(=O)O)C(=O)O)C(=O)N[C@@H](CCC(N)=O)C(=O)N[C@@H](CCC(N)=O)C(=O)N[C@@H](CC(=O)O)C(=O)N[C@@H](Cc1ccccc1)C(=O)N[C@H](C(=O)N[C@@H](CC(N)=O)C(=O)N[C@@H](Cc1c[nH]c2ccccc12)C(=O)N[C@@H](CC(C)C)C(=O)N[C@@H](CC(C)C)C(=O)N[C@@H](C)C(=O)N[C@@H](CCC(N)=O)C(=O)N[C@@H](CCCNC(=N)N)C(N)=O)C(C)C)[C@@H](C)CC [AT375] (H-EGTFISDYSIAMDRIK([AEEA-AEEA-AEEA-γGlu-C16 diacid])QQDFVNWLLAQR-NH2; N-terminus assumed)
Emax (human GIP receptor [1]): 6%
cAMP antagonism, % inhib (human GIP receptor [2]): 83%
IC50 (human GIP receptor [2]): 23.3 nM
cAMP antagonism, % inhib (human GIP receptor [3]): 100%
cAMP agonism, Emax (human GIP receptor [4]): No Agonism

CC[C@H](C)[C@H](NC(=O)[C@H](CO)NC(=O)[C@H](Cc1ccc(O)cc1)NC(=O)[C@H](CC(=O)O)NC(=O)[C@H](CO)NC(=O)[C@@H](NC(=O)[C@H](Cc1ccccc1)NC(=O)[C@@H](NC(=O)CNC(=O)[C@@H](N)CCC(=O)O)[C@@H](C)O)[C@@H](C)CC)C(=O)N[C@@H](C)C(=O)N[C@@H](CCSC)C(=O)N[C@@H](CC(=O)O)C(=O)N[C@@H](CCCNC(=N)N)C(=O)N[C@H](C(=O)N[C@@H](CCCCNC(=O)COCCOCCNC(=O)CC[C@H](NC(=O)CCCCCCCCCCCCCCCCC(=O)O)C(=O)O)C(=O)N[C@@H](CCC(N)=O)C(=O)N[C@@H](CCC(N)=O)C(=O)N[C@@H](CC(=O)O)C(=O)N[C@@H](Cc1ccccc1)C(=O)N[C@H](C(=O)N[C@@H](CC(N)=O)C(=O)N[C@@H](Cc1c[nH]c2ccccc12)C(=O)N[C@@H](CC(C)C)C(=O)N[C@@H](CC(C)C)C(=O)N[C@@H](C)C(=O)N[C@@H](CCC(N)=O)C(=O)N[C@@H](CCCNC(=N)N)C(N)=O)C(C)C)[C@@H](C)CC [AT376] (HELM PEPTIDE1{E.G.T.F.I.S.D.Y.S.I.A.M.D.R.I.K.Q.Q.D.F.V.N.W.L.L.A.Q.R.[am]}|PEPTIDE2{[O=C(O)CCCCCCCCCCCCCCCCC(=O)[*:2]].[gGlu].[O=C(COCCOCCN[*:1])[*:2]]}$PEPTIDE1,PEPTIDE2,16:R3-3:R2$$$V2.0; N-terminus assumed)
Emax (human GIP receptor [1]): 0%
cAMP antagonism, % inhib (human GIP receptor [2]): 87%
IC50 (human GIP receptor [2]): 6.81 nM
cAMP antagonism, % inhib (human GIP receptor [3]): 90%
IC50 (human GIP receptor [3]): 19 nM
cAMP agonism, Emax (human GIP receptor [4]): No Agonism

CC[C@H](C)[C@H](NC(=O)[C@H](CO)NC(=O)[C@H](Cc1ccc(O)cc1)NC(=O)[C@H](CC(=O)O)NC(=O)[C@H](CO)NC(=O)[C@@H](NC(=O)[C@H](Cc1ccccc1)NC(=O)[C@@H](NC(=O)CNC(=O)[C@@H](N)CCC(=O)O)[C@@H](C)O)[C@@H](C)CC)C(=O)N[C@@H](C)C(=O)N[C@@H](CCSC)C(=O)N[C@@H](CC(=O)O)C(=O)N[C@@H](CCCNC(=N)N)C(=O)N[C@H](C(=O)N[C@@H](CCCCNC(=O)COCCOCCNC(=O)COCCOCCNC(=O)CC[C@H](NC(=O)CCCCCCCCCCCCCCCCC(=O)O)C(=O)O)C(=O)N[C@@H](CCC(N)=O)C(=O)N[C@@H](CCC(N)=O)C(=O)N[C@@H](CC(=O)O)C(=O)N[C@@H](Cc1ccccc1)C(=O)N[C@H](C(=O)N[C@@H](CC(N)=O)C(=O)N[C@@H](Cc1c[nH]c2ccccc12)C(=O)N[C@@H](CC(C)C)C(=O)N[C@@H](CC(C)C)C(=O)N[C@@H](C)C(=O)N[C@@H](CCC(N)=O)C(=O)N[C@@H](CCCNC(=N)N)C(N)=O)C(C)C)[C@@H](C)CC [AT377] (H-EGTFISDYSIAMDRIK([AEEA-AEEA-γGlu-C18 diacid])QQDFVNWLLAQR-NH2; N-terminus assumed)
Emax (human GIP receptor [1]): 0%
cAMP antagonism, % inhib (human GIP receptor [2]): 90%
cAMP antagonism, % inhib (human GIP receptor [3]): 100%
IC50 (human GIP receptor [3]): 19 nM
cAMP agonism, Emax (human GIP receptor [4]): No Agonism

CC[C@H](C)[C@H](NC(=O)[C@H](CO)NC(=O)[C@H](Cc1ccc(O)cc1)NC(=O)[C@H](CC(=O)O)NC(=O)[C@H](CO)NC(=O)[C@@H](NC(=O)[C@H](Cc1ccccc1)NC(=O)[C@@H](NC(=O)CNC(=O)[C@@H](N)CCC(=O)O)[C@@H](C)O)[C@@H](C)CC)C(=O)N[C@@H](C)C(=O)N[C@@H](CCSC)C(=O)N[C@@H](CC(=O)O)C(=O)N[C@@H](CCCNC(=N)N)C(=O)N[C@H](C(=O)N[C@@H](CCCCNC(=O)COCCOCCNC(=O)COCCOCCNC(=O)COCCOCCNC(=O)CC[C@H](NC(=O)CCCCCCCCCCCCCCCCC(=O)O)C(=O)O)C(=O)N[C@@H](CCC(N)=O)C(=O)N[C@@H](CCC(N)=O)C(=O)N[C@@H](CC(=O)O)C(=O)N[C@@H](Cc1ccccc1)C(=O)N[C@H](C(=O)N[C@@H](CC(N)=O)C(=O)N[C@@H](Cc1c[nH]c2ccccc12)C(=O)N[C@@H](CC(C)C)C(=O)N[C@@H](CC(C)C)C(=O)N[C@@H](C)C(=O)N[C@@H](CCC(N)=O)C(=O)N[C@@H](CCCNC(=N)N)C(N)=O)C(C)C)[C@@H](C)CC [AT378] (H-EGTFISDYSIAMDRIK([AEEA-AEEA-AEEA-γGlu-C18 diacid])QQDFVNWLLAQR-NH2; N-terminus assumed)
Emax (human GIP receptor [1]): 0%
cAMP antagonism, % inhib (human GIP receptor [2]): 90%
cAMP antagonism, % inhib (human GIP receptor [3]): 92%
IC50 (human GIP receptor [3]): 16 nM
cAMP agonism, Emax (human GIP receptor [4]): No Agonism

CC[C@H](C)[C@H](NC(=O)[C@H](CO)NC(=O)[C@H](Cc1ccc(O)cc1)NC(=O)[C@H](CC(=O)O)NC(=O)[C@H](CO)NC(=O)[C@@H](NC(=O)[C@H](Cc1ccccc1)NC(=O)[C@@H](NC(=O)CNC(=O)[C@@H]1CCC(=O)N1)[C@@H](C)O)[C@@H](C)CC)C(=O)N[C@@H](C)C(=O)N[C@@H](CCSC)C(=O)N[C@@H](CC(=O)O)C(=O)N[C@@H](CCCNC(=N)N)C(=O)N[C@H](C(=O)N[C@@H](CCCCNC(=O)CCCCCCCCCCCCCCC(=O)O)C(=O)N[C@@H](CCC(N)=O)C(=O)N[C@@H](CCC(N)=O)C(=O)N[C@@H](CC(=O)O)C(=O)N[C@@H](Cc1ccccc1)C(=O)N[C@H](C(=O)N[C@@H](CC(N)=O)C(=O)N[C@@H](Cc1c[nH]c2ccccc12)C(=O)N[C@@H](CC(C)C)C(=O)N[C@@H](CC(C)C)C(=O)N[C@@H](C)C(=O)N[C@@H](CCC(N)=O)C(=O)N[C@@H](CCCNC(=N)N)C(N)=O)C(C)C)[C@@H](C)CC [AT390] ([pGlu]GTFISDYSIAMDRIK(C16 diacid)QQDFVNWLLAQR-NH2)
Emax (human GIP receptor [1]): 4%
cAMP antagonism, % inhib (human GIP receptor [2]): 81%
IC50 (human GIP receptor [2]): 15.9 nM
cAMP antagonism, % inhib (human GIP receptor [3]): 100%
IC50 (human GIP receptor [3]): 1 nM
cAMP agonism, Emax (human GIP receptor [4]): No Agonism
